Measured values: paper PMC4675551, “Protein Kinase C-Independent Inhibition of Organic Cation Transporter 1 Activity by the Bisindolylmaleimide Ro 31-8220” (PLoS ONE, 2015)
Each block holds one compound with its values, some of them ahead of it.

Experiments:
Type in all cases: cell-based
[1] = biological target: T1, organic cation transporter 1 (OCT1) (Homo sapiens, UniProt O15245); assay: inhibition of […]-TEA uptake in HEK-OCT1 cells, […], more than […] inhibition; conditions: read-out: % inhibition at 5 μM
T1 construct: gene SLC22A1; NM_003057 overexpressed in HEK293 cells
T1 sequence (O15245 1-554): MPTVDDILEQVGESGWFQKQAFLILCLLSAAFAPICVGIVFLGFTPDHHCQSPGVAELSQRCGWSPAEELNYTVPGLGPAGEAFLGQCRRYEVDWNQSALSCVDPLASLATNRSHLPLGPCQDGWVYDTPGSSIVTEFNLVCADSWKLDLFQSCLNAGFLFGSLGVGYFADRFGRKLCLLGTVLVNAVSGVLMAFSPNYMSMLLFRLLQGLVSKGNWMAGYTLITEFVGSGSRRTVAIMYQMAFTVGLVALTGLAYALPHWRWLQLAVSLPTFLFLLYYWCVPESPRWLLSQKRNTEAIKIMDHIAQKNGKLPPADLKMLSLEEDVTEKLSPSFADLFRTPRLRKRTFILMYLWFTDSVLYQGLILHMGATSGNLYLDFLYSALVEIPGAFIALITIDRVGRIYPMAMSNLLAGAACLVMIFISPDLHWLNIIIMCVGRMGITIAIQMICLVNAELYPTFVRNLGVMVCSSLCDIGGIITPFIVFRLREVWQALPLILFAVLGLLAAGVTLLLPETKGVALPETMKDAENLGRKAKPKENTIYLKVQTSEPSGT

MATE2-K = biological target: T2, MATE2-K (Homo sapiens, UniProt Q86VL8); assay: inhibition of […]-TEA uptake in HEK-MATE2-K cells
T2 construct: gene SLC47A2; NM_152908 overexpressed in HEK293 cells
T2 sequence (Q86VL8 1-566 isoform Q86VL8-3): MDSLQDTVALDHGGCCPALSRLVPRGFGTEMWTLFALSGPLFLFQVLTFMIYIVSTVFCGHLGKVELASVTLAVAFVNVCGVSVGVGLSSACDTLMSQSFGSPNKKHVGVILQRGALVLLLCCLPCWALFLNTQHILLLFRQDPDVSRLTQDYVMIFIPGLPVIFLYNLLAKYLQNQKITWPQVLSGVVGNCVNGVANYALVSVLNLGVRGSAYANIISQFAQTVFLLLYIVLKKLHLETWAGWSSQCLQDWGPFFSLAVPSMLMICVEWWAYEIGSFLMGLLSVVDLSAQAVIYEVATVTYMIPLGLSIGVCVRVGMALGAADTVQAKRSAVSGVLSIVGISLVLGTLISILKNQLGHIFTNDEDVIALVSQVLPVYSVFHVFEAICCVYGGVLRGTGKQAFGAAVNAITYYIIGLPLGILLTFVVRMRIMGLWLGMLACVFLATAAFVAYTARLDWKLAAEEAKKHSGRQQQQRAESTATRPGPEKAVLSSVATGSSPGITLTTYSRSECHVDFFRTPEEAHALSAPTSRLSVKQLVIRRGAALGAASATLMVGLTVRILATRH

[2] = biological target: T3, organic cation transporter 2 (OCT2) (Homo sapiens, UniProt O15244); assay: cis-stimulation of […]-TEA uptake in HEK-OCT2 cells
T3 construct: gene SLC22A2; NM_003058 overexpressed in HEK293 cells
T3 sequence (O15244 1-555): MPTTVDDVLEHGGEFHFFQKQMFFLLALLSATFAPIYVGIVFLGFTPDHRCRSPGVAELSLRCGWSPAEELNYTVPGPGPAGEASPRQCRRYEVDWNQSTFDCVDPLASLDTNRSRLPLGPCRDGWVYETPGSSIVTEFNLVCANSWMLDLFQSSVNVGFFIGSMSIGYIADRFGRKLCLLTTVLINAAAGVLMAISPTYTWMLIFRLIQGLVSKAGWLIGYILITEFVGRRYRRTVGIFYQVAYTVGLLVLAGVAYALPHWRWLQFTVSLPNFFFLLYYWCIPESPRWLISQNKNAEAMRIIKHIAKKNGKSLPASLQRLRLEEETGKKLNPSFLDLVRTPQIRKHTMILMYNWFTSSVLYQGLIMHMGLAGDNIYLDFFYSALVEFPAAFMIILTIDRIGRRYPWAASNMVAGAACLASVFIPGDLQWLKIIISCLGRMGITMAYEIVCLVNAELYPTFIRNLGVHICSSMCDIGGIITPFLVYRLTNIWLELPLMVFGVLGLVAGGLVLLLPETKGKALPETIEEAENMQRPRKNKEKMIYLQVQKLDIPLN

[3] = biological target: T1, organic cation transporter 1 (OCT1); assay: cis-inhibition of […]-TEA uptake in HEK-OCT1 cells
[4] = biological target: T4, multidrug and toxin extrusion protein 1 (MATE1) (Homo sapiens, UniProt Q96FL8); assay: inhibition of […]-TEA uptake in HEK-MATE1 cells
T4 construct: gene SLC47A1; NM_018242 overexpressed in HEK293 cells
T4 sequence (Q96FL8 1-570): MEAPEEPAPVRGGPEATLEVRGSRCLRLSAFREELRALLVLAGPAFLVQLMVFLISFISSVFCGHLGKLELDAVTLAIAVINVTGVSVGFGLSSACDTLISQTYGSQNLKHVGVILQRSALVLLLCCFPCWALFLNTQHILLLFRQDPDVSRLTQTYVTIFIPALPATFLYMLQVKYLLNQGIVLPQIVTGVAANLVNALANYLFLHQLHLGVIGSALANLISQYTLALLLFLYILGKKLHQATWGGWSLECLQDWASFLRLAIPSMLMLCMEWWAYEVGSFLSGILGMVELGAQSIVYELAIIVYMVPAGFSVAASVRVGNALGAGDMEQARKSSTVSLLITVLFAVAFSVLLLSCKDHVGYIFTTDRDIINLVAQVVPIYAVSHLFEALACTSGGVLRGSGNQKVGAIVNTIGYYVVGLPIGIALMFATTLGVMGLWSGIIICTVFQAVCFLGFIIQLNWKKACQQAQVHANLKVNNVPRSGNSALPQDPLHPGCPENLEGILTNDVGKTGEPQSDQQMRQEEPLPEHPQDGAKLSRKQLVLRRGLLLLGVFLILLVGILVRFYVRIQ

[5] = biological target: T1, organic cation transporter 1 (OCT1); assay: inhibition of TEA and DAPI uptake in HEK-OCT1 cells at […]

- IC50 (MATE2-K): 190 ± 70 nM
- EC50 [2]: 400 ± 10 nM
- IC50 [3]: 180 ± 50 nM
SMILES: Cn1cc(C2=C(c3cn(CCCSC(=N)N)c4ccccc34)C(=O)NC2=O)c2ccccc21 [BIM-IX, Ro 31–8220]
- IC50 [4]: 39 ± 6 nM

- inhibition at 5 µM [1]: > 50%
SMILES: Cn1cc(C2=C(c3cn(CCCN)c4ccccc34)C(=O)NC2=O)c2ccccc21 [BIM-VIII]

- inhibition at 5 µM [1]: > 50%
SMILES: CN(C)C[C@@H]1CCn2cc(c3ccccc32)C2=C(C(=O)NC2=O)c2cn(c3ccccc23)CCO1 [LY 333531]

More lines, now with the values behind:

SMILES: NCCCn1cc(C2=C(c3c[nH]c4ccccc34)C(=O)NC2=O)c2ccccc21 [BIM-III]
- inhibition at 5 µM [1]: > 50%

SMILES: CN1CCCC1CCn1cc(C2=C(c3c[nH]c4ccccc34)C(=O)NC2=O)c2ccccc21 (stereo not shown) [BIM-II]
- inhibition at 5 µM [1]: > 50%

SMILES: CN(C)CCCn1cc(C2=C(c3c[nH]c4ccccc34)C(=O)NC2=O)c2ccccc21 [BIM-I]
- inhibition at 5 µM [1]: > 50%

SMILES: COc1ccc(CCN(C)CCCC(C#N)(c2ccc(OC)c(OC)c2)C(C)C)cc1OC (stereo not shown) [verapamil]
- inhibition of TEA and DAPI uptake in HEK-OCT1 cells at 50 μM [5]: the reference OCT1 inhibitor verapamil similarly inhibited DAPI uptake
